One data set concerns Proteus mirabilis 18. Kind of data set: Minimal inhibitory concentration, two-fold agar-plate dilution method. It counts as cell-based. To be noted: HI-agar, 37° C., 20 hours, 10^8 viable cells per ml. Here is the method: (§1) (A) Minimal inhibitory concentration 1 Test Method In vitro antibacterial activity was determined by the two-fold agar-plate dilution method as described below. One loopful of an overnight culture of each test strain in Trypticase-soy broth (10^8 viable cells per ml) was streaked on heart infusion agar (HI-agar) containing graded concentrations of representative test compound, and the minimal inhibitory concentration (MIC) was expressed in tems of μg/ml after incubation at 37° C. for 20 hours.

The subject of another data set is Proteus vulgaris 2. Described as above. It counts as cell-based. As to conditions: HI-agar, 37° C., 20 hours, 10^8 viable cells per ml. Here is the method:
as §1

Data set [1] in a line: Urinary excretion in rats after oral administration. To be noted: rat, oral 100 mg/kg, urine 0 to 6 and 6 to 24 hours, bioassay, read-out: Urinary recovery in 24 hours (%). Format: in vivo.
Protocol: Urine of rats was collected with a urine collector at 0 to 6, and 6 to 24 hours after oral administration of 100 mg/kg of the test antibiotic. The antibiotic levels in the urine samples were bioassayed with the standard solution prepared with M/15 phosphate buffer (pH 7.0) and the urinary recovery in 24 hours was calculated.
Another data set in a line: in vivo. As to conditions: rat, po, 100 mg/kg.

In US4487768A, “Cephem compounds” (Fujisawa Pharmaceutical Co., Ltd., priority 1982, dated 1984) one finds MIC and dose excreted data, which are given here for one compound.

≈ marks a conversion by molar mass, not a printed value.

Protocol for in vivo: Rats anesthetized with pentobarbital were fixed in supine position, and a polyethylene cannula was inserted into the bile duct. Bile samples were collected at 0 to 3, 3 to 6, and 6 to 24 hours after oral administration of 100 mg/kg of the test antibiotic. The antibiotic levels in the bile samples were bioassayed with the standard solutions prepared with M/15 phosphate buffer (pH 7.0) and the biliary recovery in 24 hours were calculated.

For `[N-]=[N+]=NCC1=C(C(=O)O)N2C(=O)C(NC(=O)/C(=N\OCC(=O)O)c3nsc(N)n3)C2SC1` (stereo not drawn) [Test Compound (1), 7-[2-Carboxymethoxyimino-2-(5-amino-1,2,4-thiadiazol-3-yl)acetamido]-3-azidomethyl-3-cephem-4-carboxylic acid (syn isomer)], the MIC amounted to 0.05 µg/mL (≈ 0.103 µM) in the data set on Proteus mirabilis 18 and 0.1 µg/mL (≈ 0.207 µM) with Proteus vulgaris 2. For the same compound, the dose excreted at 24 h in data set [1] amounted to 26.6%; in the data set “in vivo” it was 4.72%.

One may read the MIC as the smallest concentration in the dilution series that meets the test's criterion for growth inhibition. A low value points to inhibition by little substance.
